Reference: patent publication US7501538B2, “Aryl and heteroaryl compounds, compositions and methods of use” (TransTech Pharma, Inc., priority 2003, dated 2009)
Read-outs that look alike come from different tables or passages of the source.

How the values were obtained:
UT-7 cells (UT7/EPO) = experiment: Cell Proliferation Assay (AlamarBlue), UT-7; assay type: cell-based; conditions: UT-7 assay, at or below 1000 micromolar compound concentration
Description: UT-7 and FDC-P1 cell proliferation was assessed by AlamarBlue (BioSource International Inc., Camarillo, Calif. 93012, USA). Briefly, the cells were plated into 96-well Costar cell culture plate (Corning Incorporated, Corning, N.Y. 14831, USA) at 7000 cells/well and 4000 cells/well for UT7/EPO and FDC-P1 cell line, respectively. The test compound and/or vehicle was added to each well with a final concentration of 1% DMSO and incubated in an atmosphere of 5% CO2 at 37° C. for 66 hours. After a further 6 hour incubation in the presence of AlamarBlue, fluorescent intensity was measured using a SpectraMax Gemini (Molecular Devices, Sunnyvale, Calif. 94089, USA) plate reader, with excitation at 530 nm and emission at 590 nm. The Percent Increase=((RFU Test-RFU Medium)/(RFU Vehicle-RFU Medium)-1)*100. Recombinant human EPO (Research Diagnostics, Inc., Flanders, N.J. 07836, USA) was used in the assay as a positive control.

receptors for EPO = conditions: cited from earlier work

Molecule | cell proliferation (Percent Increase) (UT-7 cells (UT7/EPO)) [%] | Kd (receptors for EPO; high affinity receptor, read-out: Kd, high affinity receptors for EPO) [nM] | Kd (receptors for EPO; low affinity receptor, read-out: Kd, low affinity receptors for EPO) [nM]
CC(C)(C)c1ccc(COc2ccc(C[C@H](NC(=O)c3cc(Cl)ccc3NCc3cccc4ccccc34)C(=O)O)cc2)cc1 [Example 4, (2S)-3-[4-(4-tert-butyl-benzyloxy)-phenyl]-2-{5-chloro-2-[(naphthalen-1-ylmethyl)-amino]-benzoylamino}-propionic acid] | < 20 | – | –
EPO: 165 amino acid, 34 kilodalton (kDa) glycoprotein hormone regulating red blood cell production | – | 0.075 to 0.1 | 0.22 to 0.8
